Experimental data taken from ChEMBL document CHEMBL5233262, “Anti-inflammatory activity of naturally occuring diarylheptanoids - A review” (Bioorg Med Chem, 2021).
One block for each compound: values may come before it.

Assays:
RAW264.7 [1] = assay: Antiinflammatory activity in mouse RAW264.7 cells assessed as inhibition of LPS-induced TNF-alpha production; format: functional, cell-based
RAW264.7 [2] = assay: Antiinflammatory activity in mouse RAW264.7 cells assessed as inhibition of LPS-induced IL-6 production; format: functional, cell-based
RAW264.7 [3] = assay: Antiinflammatory activity in mouse RAW264.7 cells assessed as inhibition of LPS-induced IL-1beta production; format: functional, cell-based
Hepatocyte [4] = assay: Hepatoprotective activity against CCL4-induced rat hepatocyte toxicity assessed as decrease in ALT level at 1 uM preincubated for 30 mins followed by CCL4 addition and measured after 180 mins by colorimetric method; format: functional; parameters: scale not given: the % may be the effect or the level left; settings: time 210 min
Hepatocyte [5] = assay: Hepatoprotective activity against CCL4-induced rat hepatocyte toxicity assessed as decrease in TNF-alpha level at 1 uM preincubated for 30 mins followed by CCL4 addition and measured after 180 mins by ELISA; format: functional; parameters: scale not given: the % may be the effect or the level left; settings: time 210 min
RAW264.7 [6] = assay: Antiinflammatory activity in mouse RAW264.7 cells assessed as inhibition of LPS-induced NO production preincubated for 1 hrs followed by LPS stimulation and measured after 24 hrs by Griess method; format: functional, cell-based
RAW264.7 [7] = assay: Antiinflammatory activity in mouse RAW264.7 cells assessed as inhibition of LPS-induced TNFalpha level preincubated for 1 hrs followed by LPS stimulation and measured after 24 hrs by ELISA; format: functional, cell-based
Hepatocyte [8] = assay: Hepatoprotective activity against CCL4-induced rat hepatocyte toxicity assessed as decrease in TBARS level by measuring MDA formation at 1 uM preincubated for 30 mins followed by CCL4 addition and measured after 180 mins by TBARS method; format: functional; parameters: scale not given: the % may be the effect or the level left; settings: time 210 min
Hepatocyte [9] = assay: Hepatoprotective activity against CCL4-induced rat hepatocyte toxicity assessed as decrease in IL-1beta level at 1 uM preincubated for 30 mins followed by CCL4 addition and measured after 180 mins by ELISA; format: functional; parameters: scale not given: the % may be the effect or the level left; settings: time 210 min
[10] = Inhibition of COX in bovine seminal vesicle assessed as reduction in PGE2 production using arachidonic acid as substrate; format: tissue-based, Bos taurus
[11] = biological target: T1, Polyunsaturated fatty acid 5-lipoxygenase (Homo sapiens, UniProt P09917); assay: Inhibition of 5-LOX in human neutrophils assessed as reduction in 5-HETE formation preincubated for 5 mins followed by arachidonic acid and A23187 addition and measured after 5 mins by RP-HPLC analysis; format: cell-based, Neutrophil
T1 sequence (P09917 whole entry): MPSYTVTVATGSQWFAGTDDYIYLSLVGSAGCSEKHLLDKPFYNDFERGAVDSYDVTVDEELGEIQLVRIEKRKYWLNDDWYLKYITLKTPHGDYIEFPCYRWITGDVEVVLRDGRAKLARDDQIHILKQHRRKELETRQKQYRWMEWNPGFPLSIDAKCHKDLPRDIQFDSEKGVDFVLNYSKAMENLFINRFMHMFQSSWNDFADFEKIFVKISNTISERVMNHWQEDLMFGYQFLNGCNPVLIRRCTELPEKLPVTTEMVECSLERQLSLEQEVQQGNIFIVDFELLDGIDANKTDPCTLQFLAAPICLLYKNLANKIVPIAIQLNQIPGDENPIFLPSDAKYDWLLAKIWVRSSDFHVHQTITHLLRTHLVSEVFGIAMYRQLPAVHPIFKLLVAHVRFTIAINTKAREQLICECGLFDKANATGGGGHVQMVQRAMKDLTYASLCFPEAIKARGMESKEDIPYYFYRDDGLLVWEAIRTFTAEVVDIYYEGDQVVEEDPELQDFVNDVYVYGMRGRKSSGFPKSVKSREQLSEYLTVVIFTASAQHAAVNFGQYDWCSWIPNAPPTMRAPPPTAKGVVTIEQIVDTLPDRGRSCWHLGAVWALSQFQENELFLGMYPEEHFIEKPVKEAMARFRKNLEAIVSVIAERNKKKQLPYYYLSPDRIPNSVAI

Mus musculus = assay: Antiinflammatory activity in ICR mouse model of TPA-induced ear edema assessed as inhibition of ear inflammation at 20 uM,TOP for 30 mins followed by TPA addition and measured after 5 hrs; format: functional; settings: 5.5 h, time 330 min
Zingiber officinale = assay: Inhibition of prostaglandin biosynthesis in ginger; format: functional, organism-based
RAW264.7 [12] = assay: Antiinflammatory activity in mouse RAW264.7 cells assessed as inhibition of LPS-induced NO production by Griess method; format: functional, cell-based
RAW264.7 [13] = assay: Antiinflammatory activity in mouse RAW264.7 cells assessed as inhibition of LPS-induced NO production incubated for 20 hrs by Griess reagent based microplate reader analysis; format: functional, cell-based; settings: RAW264.7, 20 h
RAW264.7 [14] = assay: Antiinflammatory activity in mouse RAW264.7 cells assessed as inhibition of LPS-induced NO production at 10 ug/ml incubated for 20 hrs by Griess reagent based microplate reader analysis; format: functional
Rattus norvegicus [15] = assay: Antiinflammatory activity in rat model of ethyl phenylpropiolate-induced ear edema assessed as 30% reduction in ear thickness administered topically and measured after 30 mins; format: functional; settings: 0.5 h
Rattus norvegicus [16] = assay: Antiinflammatory activity in rat model of ethyl phenylpropiolate-induced ear edema assessed as 30% reduction in ear thickness administered topically and measured after 1 hr; format: functional
Rattus norvegicus [17] = assay: Antiinflammatory activity in rat model of carrageenan-induced hind paw edema assessed as reduction in paw thickness at 100 mg/kg,ip 30mins before carrageenin exposure and measured after 3 hrs; format: functional; parameters: scale not given: the % may be the effect or the level left
RAW264.7 [18] = assay: Antiinflammatory activity in mouse RAW264.7 cells assessed as inhibition of LPS-induced iNOS expression at 25 uM; format: functional
U-937 [19] = assay: Antiinflammatory activity in PMA-stimulated human U-937 cells assessed as inhibition of IL-1beta protein expression at 1 ug/ml by western blot analysis; format: functional
U-937 [20] = assay: Antiinflammatory activity in PMA-stimulated human U-937 cells assessed as inhibition of IL-1beta secretion at 1 ug/ml by ELISA; format: functional
U-937 [21] = assay: Antiinflammatory activity in PMA-stimulated human U-937 cells assessed as inhibition of TNFalpha secretion at 1 ug/ml by ELISA; format: functional

IC50 (RAW264.7 [6]): 12.3 µM
IC50 (RAW264.7 [7]): 11.2 µM
Structure (SMILES): COc1cc(/C=C/C(=O)CC(=O)/C=C/c2ccc(O)c(OC)c2)ccc1O [CURCUMIN]
Activity (Hepatocyte [4]): 57.6%
Activity (Hepatocyte [5]): 37.1%
Activity (Hepatocyte [8]): 39.2%
Activity (Hepatocyte [9]): 63.3%

IC50 [10]: 16 µM
IC50 [11]: 5.4 µM
IC50 (Zingiber officinale): 0.5 µM
Structure (SMILES): COc1cc(CCC(=O)CCCCc2ccccc2)ccc1O
inhibition in vivo at 20 µM (Mus musculus): 43%

IC50 (RAW264.7 [12]): > 100 µM
Structure (SMILES): COc1cc(C[C@H]2O[C@@H](CC(=O)c3ccc(O)c(OC)c3)C[C@H]2O)ccc1O

IC50 (RAW264.7 [13]): > 30 µM
Structure (SMILES): COc1cc(CCC(=O)CC(O)CCc2ccc(O)c(OC)c2)ccc1O (stereo not drawn) [HEXAHYDROCURCUMIN]
inhibition at 10 µg/mL (RAW264.7 [14]): 32%

IC50 (RAW264.7 [12]): 38.9 µM
Structure (SMILES): COc1cc(C(=O)[C@@H](O)[C@@H]2CCC[C@H](c3ccc(O)c(OC)c3)O2)ccc1O

IC50 (RAW264.7 [13]): 22.8 µM
Structure (SMILES): COc1cc(CCC(O)CC(O)CCc2ccc(O)c(O)c2)ccc1O (stereo not drawn)
inhibition at 25 µM (RAW264.7 [18]): 32%

The next lines start with the compound.

Structure (SMILES): COc1cc2cc(c1O)-c1cc(ccc1O)CC[C@H](O)CCCC2
IC50 (RAW264.7 [1]): 19.5 µM
IC50 (RAW264.7 [2]): 20.3 µM
IC50 (RAW264.7 [3]): 17.9 µM

Structure (SMILES): COc1cc(CCC(=O)CCCCc2ccc(O)c(O)c2)ccc1O
Activity (Hepatocyte [4]): 56.3%
Activity (Hepatocyte [5]): 43.8%
Activity (Hepatocyte [8]): 60.4%
Activity (Hepatocyte [9]): 58.8%

Structure (SMILES): OC(CC/C=C/c1ccccc1)CCc1ccccc1 (stereo not drawn)
ID30 (Rattus norvegicus [15]): 35 µg
ID30 (Rattus norvegicus [16]): 28 µg
Activity (Rattus norvegicus [17]): 30%

Structure (SMILES): COc1cc(CC[C@@H](CCCCc2cc(O)c(O)c(O)c2)OC(C)=O)cc(OC)c1O
Activity (Hepatocyte [4]): 61.1%
Activity (Hepatocyte [5]): 38.6%
Activity (Hepatocyte [8]): 67.1%
Activity (Hepatocyte [9]): 63.6%

Structure (SMILES): Oc1ccc(CCC(O)CC/C=C/c2ccccc2)cc1O (stereo not drawn)
inhibition at 1 µg/mL (U-937 [19]): 64%
inhibition at 1 µg/mL (U-937 [20]): 30%
inhibition at 1 µg/mL (U-937 [21]): 44%
